# Laboratory results: US10323032B2, “P2X7 Modulators” (Janssen Pharmaceutica NV, priority 2013, dated 2019)
# Read-outs that look alike come from different tables or passages of the source.
# Target: P2X7 receptor (Homo sapiens (Human), UniProt Q99572)
# Assay: P2X7 antagonism in human PBMCs: IL-1β release (ELISA) after LPS + Bz-ATP
# Assay type: cell-based
# Conditions: LPS 30 ng/ml + 0.5 mM Bz-ATP; for remaining activity at 10 µM: read-out: PBMC 10 μM (% control)
# Protocol: Human blood was collected using a blood donor program. […] Cells were incubated for an additional 1.5 hours. […] Data are analyzed and graphed on Graphpad Prism 5. […] The IC50 for each compound is then uploaded into 3DX.
# [1] = P2X7, Table 3 (additional runs), 10 μM compound
# Sequence of P2X7 receptor (Q99572 whole entry): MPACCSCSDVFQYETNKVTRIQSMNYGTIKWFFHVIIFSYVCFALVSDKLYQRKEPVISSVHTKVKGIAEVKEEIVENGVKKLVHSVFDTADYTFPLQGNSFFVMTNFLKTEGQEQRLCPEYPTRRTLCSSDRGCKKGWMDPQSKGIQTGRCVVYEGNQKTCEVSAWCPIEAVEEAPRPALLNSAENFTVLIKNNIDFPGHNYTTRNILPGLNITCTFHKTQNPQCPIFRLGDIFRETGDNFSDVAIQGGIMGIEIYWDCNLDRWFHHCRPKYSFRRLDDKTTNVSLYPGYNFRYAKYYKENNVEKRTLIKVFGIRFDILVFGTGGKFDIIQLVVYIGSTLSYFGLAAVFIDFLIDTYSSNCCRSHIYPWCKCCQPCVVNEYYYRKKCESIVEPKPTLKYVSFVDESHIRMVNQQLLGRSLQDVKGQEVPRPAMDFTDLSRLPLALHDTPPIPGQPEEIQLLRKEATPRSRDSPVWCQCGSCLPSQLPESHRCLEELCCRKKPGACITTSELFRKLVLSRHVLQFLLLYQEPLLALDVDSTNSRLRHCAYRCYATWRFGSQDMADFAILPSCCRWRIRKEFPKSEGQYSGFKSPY
remaining activity at 10 µM [1],Structure (SMILES),further results
,"Cc1nc2c(c(-c3ccn[nH]3)n1)C[C@H](C)N(C(=O)c1ccc(Cl)cc1F)C2 (single isomer, unassigned) [Example 89, (S*)-(4-chloro-2-fluorophenyl)(2,6-dimethyl-4-(1H-pyrazol-5-yl)-5,6-dihydropyrido[3,4-d]pyrimidin-7(8H)-yl)methanone]","remaining activity at 10 µM (P2X7, Table 2, 10 μM compound): -16.4%"
-0.6%,"Cc1nc2c(c(-c3ccn[nH]3)n1)C[C@@H](C)N(C(=O)c1cccc(OC(F)(F)F)c1)C2 (single isomer, unassigned) [Example 141, (R*)-(2,6-dimethyl-4-(1H-pyrazol-5-yl)-5,6-dihydropyrido[3,4-d]pyrimidin-7(8H)-yl)(3-(trifluoromethoxy)phenyl)methanone]",
-18.9%,"Cc1nc2c(c(-c3ccn[nH]3)n1)C[C@@H](C)N(C(=O)c1cccc(F)c1Cl)C2 (single isomer, unassigned) [Example 144, (R*)-(2-chloro-3-fluorophenyl)(2,6-dimethyl-4-(1H-pyrazol-5-yl)-5,6-dihydropyrido[3,4-d]pyrimidin-7(8H)-yl)methanone]",
,"Cc1nc2c(c(-c3ccn[nH]3)n1)CC(C)N(C(=O)c1cccc(OC(F)(F)F)c1)C2 (stereo not shown) [Example 140, (2,6-dimethyl-4-(1H-pyrazol-5-yl)-5,6-dihydropyrido[3,4-d]pyrimidin-7(8H)-yl)(3-(trifluoromethoxy)phenyl)methanone]","PBMC 10 μM (% control) (Table 3 (additional runs), 10 μM compound): 52.5 % control"
